Experimental data taken from PubChem BioAssay (NCI).
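Five compound concentrations were applied to cells in 96-well plates for 48 hours; endpoints were derived by simple linear interpolation of the resulting dose-response curve. TGI marks complete inhibition of growth.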

Assays:
Test in all cases: inhibition of tumour cell growth, NCI panel, 48 h
786-0 renal = system: 786-0 renal
A498 renal = system: A498 renal
A549 NSCLC = system: A549 NSCLC
ACHN renal = system: ACHN renal
BT-549 breast = system: BT-549 breast
CAKI-1 renal = system: CAKI-1 renal
CCRF-CEM leukemia = system: CCRF-CEM leukemia
COLO 205 colon = system: COLO 205 colon
DU-145 prostate = system: DU-145 prostate
EKVX NSCLC = system: EKVX NSCLC
HCT-116 colon = system: HCT-116 colon
HCT-15 colon = system: HCT-15 colon
HL-60(TB) leukemia = system: HL-60(TB) leukemia
HOP-62 NSCLC = system: HOP-62 NSCLC
HOP-92 NSCLC = system: HOP-92 NSCLC
HS 578T breast = system: HS 578T breast
HT29 colon = system: HT29 colon
IGROV1 ovarian = system: IGROV1 ovarian
K-562 leukemia = system: K-562 leukemia
KM12 colon = system: KM12 colon
LOX IMVI melanoma = system: LOX IMVI melanoma
M14 melanoma = system: M14 melanoma
MALME-3M melanoma = system: MALME-3M melanoma
MCF7 breast = system: MCF7 breast
MDA-MB-231 breast = system: MDA-MB-231 breast
MDA-MB-435 = system: MDA-MB-435
MDA-N = system: MDA-N
MOLT-4 leukemia = system: MOLT-4 leukemia
NCI-H226 lung = system: NCI-H226 lung
NCI-H23 lung = system: NCI-H23 lung
NCI-H460 lung = system: NCI-H460 lung
NCI-H522 lung = system: NCI-H522 lung
NCI/ADR-RES ovarian = system: NCI/ADR-RES ovarian
OVCAR-3 ovarian = system: OVCAR-3 ovarian
OVCAR-4 ovarian = system: OVCAR-4 ovarian
OVCAR-5 ovarian = system: OVCAR-5 ovarian
OVCAR-8 ovarian = system: OVCAR-8 ovarian
PC-3 prostate = system: PC-3 prostate
RPMI-8226 leukemia = system: RPMI-8226 leukemia
RXF 393 renal = system: RXF 393 renal
SF-268 CNS = system: SF-268 CNS
SF-295 CNS = system: SF-295 CNS
SF-539 CNS = system: SF-539 CNS
SK-MEL-2 melanoma = system: SK-MEL-2 melanoma
SK-MEL-28 melanoma = system: SK-MEL-28 melanoma
SK-MEL-5 melanoma = system: SK-MEL-5 melanoma
SK-OV-3 ovarian = system: SK-OV-3 ovarian
SN12C renal = system: SN12C renal
SNB-19 CNS = system: SNB-19 CNS
SR leukemia = system: SR leukemia
SW-620 colon = system: SW-620 colon
T-47D breast = system: T-47D breast
TK-10 renal = system: TK-10 renal
U251 CNS = system: U251 CNS
UACC-257 melanoma = system: UACC-257 melanoma
UACC-62 melanoma = system: UACC-62 melanoma
UO-31 renal = system: UO-31 renal
HCC-2998 colon = system: HCC-2998 colon
SNB-75 CNS = system: SNB-75 CNS

**Q.** Cc1nnc(S(=O)(=O)c2ccc(N=Nc3c(N)nc(N)nc3N)cc2)s1 was tested. Which TGI (786-0 renal) did it give?
**A.** > 100 µM

**Q.** And the TGI (A498 renal)?
**A.** > 100 µM

**Q.** And the TGI (A549 NSCLC)?
**A.** > 100 µM

**Q.** And the TGI (ACHN renal)?
**A.** > 100 µM

**Q.** And the TGI (BT-549 breast)?
**A.** > 100 µM

**Q.** What about the TGI (CAKI-1 renal) of the same molecule?
**A.** > 100 µM

**Q.** What about the TGI (CCRF-CEM leukemia) of the same molecule?
**A.** > 100 µM

**Q.** What about the TGI (COLO 205 colon) of the same molecule?
**A.** > 100 µM

**Q.** What about the TGI (DU-145 prostate) of the same molecule?
**A.** > 100 µM

**Q.** And the TGI (EKVX NSCLC)?
**A.** > 100 µM

**Q.** And the TGI (HCT-116 colon)?
**A.** > 100 µM

**Q.** And the TGI (HCT-15 colon)?
**A.** > 100 µM

**Q.** And the TGI (HL-60(TB) leukemia)?
**A.** 97.8 µM

**Q.** And the TGI (HOP-62 NSCLC)?
**A.** > 100 µM

**Q.** And the TGI (HOP-92 NSCLC)?
**A.** > 100 µM

**Q.** What about the TGI (HS 578T breast) of the same molecule?
**A.** > 100 µM

**Q.** What about the TGI (HT29 colon) of the same molecule?
**A.** > 100 µM

**Q.** And the TGI (IGROV1 ovarian)?
**A.** > 100 µM

**Q.** And the TGI (K-562 leukemia)?
**A.** > 100 µM

**Q.** What about the TGI (KM12 colon) of the same molecule?
**A.** > 100 µM

**Q.** And the TGI (LOX IMVI melanoma)?
**A.** > 100 µM

**Q.** What about the TGI (M14 melanoma) of the same molecule?
**A.** > 100 µM

**Q.** What about the TGI (MALME-3M melanoma) of the same molecule?
**A.** > 100 µM

**Q.** What about the TGI (MCF7 breast) of the same molecule?
**A.** > 100 µM

**Q.** And the TGI (MDA-MB-231 breast)?
**A.** > 100 µM

**Q.** And the TGI (MDA-MB-435)?
**A.** > 100 µM

**Q.** And the TGI (MDA-N)?
**A.** > 100 µM

**Q.** And the TGI (MOLT-4 leukemia)?
**A.** > 100 µM

**Q.** And the TGI (NCI-H226 lung)?
**A.** > 100 µM

**Q.** What about the TGI (NCI-H23 lung) of the same molecule?
**A.** > 100 µM

**Q.** And the TGI (NCI-H460 lung)?
**A.** > 100 µM

**Q.** What about the TGI (NCI-H522 lung) of the same molecule?
**A.** > 100 µM

**Q.** What about the TGI (NCI/ADR-RES ovarian) of the same molecule?
**A.** > 100 µM

**Q.** And the TGI (OVCAR-3 ovarian)?
**A.** > 100 µM

**Q.** What about the TGI (OVCAR-4 ovarian) of the same molecule?
**A.** > 100 µM

**Q.** What about the TGI (OVCAR-5 ovarian) of the same molecule?
**A.** > 100 µM

**Q.** What about the TGI (OVCAR-8 ovarian) of the same molecule?
**A.** > 100 µM

**Q.** What about the TGI (PC-3 prostate) of the same molecule?
**A.** > 100 µM

**Q.** What about the TGI (RPMI-8226 leukemia) of the same molecule?
**A.** > 100 µM

**Q.** And the TGI (RXF 393 renal)?
**A.** > 100 µM

**Q.** And the TGI (SF-268 CNS)?
**A.** > 100 µM

**Q.** And the TGI (SF-295 CNS)?
**A.** > 100 µM

**Q.** What about the TGI (SF-539 CNS) of the same molecule?
**A.** > 100 µM

**Q.** What about the TGI (SK-MEL-2 melanoma) of the same molecule?
**A.** > 100 µM

**Q.** What about the TGI (SK-MEL-28 melanoma) of the same molecule?
**A.** > 100 µM

**Q.** And the TGI (SK-MEL-5 melanoma)?
**A.** > 100 µM

**Q.** And the TGI (SK-OV-3 ovarian)?
**A.** > 100 µM

**Q.** And the TGI (SN12C renal)?
**A.** > 100 µM

**Q.** And the TGI (SNB-19 CNS)?
**A.** > 100 µM

**Q.** What about the TGI (SR leukemia) of the same molecule?
**A.** > 100 µM

**Q.** What about the TGI (SW-620 colon) of the same molecule?
**A.** > 100 µM

**Q.** And the TGI (T-47D breast)?
**A.** > 100 µM

**Q.** And the TGI (TK-10 renal)?
**A.** > 100 µM

**Q.** What about the TGI (U251 CNS) of the same molecule?
**A.** > 100 µM

**Q.** What about the TGI (UACC-257 melanoma) of the same molecule?
**A.** > 100 µM

**Q.** And the TGI (UACC-62 melanoma)?
**A.** > 100 µM

**Q.** What about the TGI (UO-31 renal) of the same molecule?
**A.** > 100 µM

**Q.** CCCCc1c(OC)cc(O)c2c1C(=O)c1[nH]c(C(=O)O)c(O)c(=O)c1C2=O was tested. Which TGI (786-0 renal) did it give?
**A.** 63.8 µM

**Q.** And the TGI (A549 NSCLC)?
**A.** > 100 µM

**Q.** What about the TGI (ACHN renal) of the same molecule?
**A.** > 100 µM

**Q.** And the TGI (BT-549 breast)?
**A.** 52.8 µM

**Q.** And the TGI (CAKI-1 renal)?
**A.** > 100 µM

**Q.** And the TGI (CCRF-CEM leukemia)?
**A.** > 100 µM

**Q.** And the TGI (COLO 205 colon)?
**A.** 64.6 µM

**Q.** What about the TGI (DU-145 prostate) of the same molecule?
**A.** > 100 µM

**Q.** And the TGI (EKVX NSCLC)?
**A.** > 100 µM

**Q.** What about the TGI (HCC-2998 colon) of the same molecule?
**A.** > 100 µM

**Q.** What about the TGI (HCT-116 colon) of the same molecule?
**A.** > 100 µM

**Q.** What about the TGI (HCT-15 colon) of the same molecule?
**A.** > 100 µM

**Q.** And the TGI (HL-60(TB) leukemia)?
**A.** > 100 µM

**Q.** And the TGI (HOP-62 NSCLC)?
**A.** 9.29 µM

**Q.** What about the TGI (HOP-92 NSCLC) of the same molecule?
**A.** > 100 µM

**Q.** And the TGI (HS 578T breast)?
**A.** 8.14 µM

**Q.** And the TGI (HT29 colon)?
**A.** > 100 µM

**Q.** And the TGI (IGROV1 ovarian)?
**A.** 64.2 µM

**Q.** And the TGI (K-562 leukemia)?
**A.** > 100 µM

**Q.** What about the TGI (KM12 colon) of the same molecule?
**A.** > 100 µM

**Q.** And the TGI (LOX IMVI melanoma)?
**A.** > 100 µM

**Q.** And the TGI (M14 melanoma)?
**A.** 34.3 µM

**Q.** And the TGI (MCF7 breast)?
**A.** > 100 µM

**Q.** And the TGI (MDA-MB-231 breast)?
**A.** 3.49 µM

**Q.** And the TGI (MDA-MB-435)?
**A.** > 100 µM

**Q.** And the TGI (MDA-N)?
**A.** > 100 µM

**Q.** What about the TGI (MOLT-4 leukemia) of the same molecule?
**A.** > 100 µM

**Q.** What about the TGI (NCI-H226 lung) of the same molecule?
**A.** 23.6 µM

**Q.** What about the TGI (NCI-H23 lung) of the same molecule?
**A.** 20.3 µM

**Q.** What about the TGI (NCI-H460 lung) of the same molecule?
**A.** > 100 µM

**Q.** What about the TGI (NCI-H522 lung) of the same molecule?
**A.** 9.94 µM

**Q.** What about the TGI (NCI/ADR-RES ovarian) of the same molecule?
**A.** 93.7 µM

**Q.** And the TGI (OVCAR-3 ovarian)?
**A.** 8.45 µM

**Q.** And the TGI (OVCAR-4 ovarian)?
**A.** > 100 µM

**Q.** What about the TGI (OVCAR-5 ovarian) of the same molecule?
**A.** 65.3 µM

**Q.** And the TGI (OVCAR-8 ovarian)?
**A.** 28.8 µM

**Q.** And the TGI (PC-3 prostate)?
**A.** > 100 µM

**Q.** What about the TGI (RPMI-8226 leukemia) of the same molecule?
**A.** > 100 µM

**Q.** What about the TGI (RXF 393 renal) of the same molecule?
**A.** 8.25 µM

**Q.** What about the TGI (SF-268 CNS) of the same molecule?
**A.** > 100 µM

**Q.** And the TGI (SF-295 CNS)?
**A.** > 100 µM

**Q.** What about the TGI (SF-539 CNS) of the same molecule?
**A.** 2.54 µM

**Q.** What about the TGI (SK-MEL-2 melanoma) of the same molecule?
**A.** 4.3 µM

**Q.** And the TGI (SK-MEL-28 melanoma)?
**A.** > 100 µM

**Q.** And the TGI (SK-OV-3 ovarian)?
**A.** 18.6 µM

**Q.** And the TGI (SN12C renal)?
**A.** > 100 µM

**Q.** And the TGI (SNB-19 CNS)?
**A.** 15.1 µM

**Q.** And the TGI (SNB-75 CNS)?
**A.** 27.5 µM

**Q.** What about the TGI (SR leukemia) of the same molecule?
**A.** 29.3 µM

**Q.** What about the TGI (SW-620 colon) of the same molecule?
**A.** > 100 µM

**Q.** What about the TGI (T-47D breast) of the same molecule?
**A.** > 100 µM

**Q.** And the TGI (TK-10 renal)?
**A.** > 100 µM

**Q.** And the TGI (U251 CNS)?
**A.** 17.6 µM

**Q.** What about the TGI (UACC-257 melanoma) of the same molecule?
**A.** 46.6 µM

**Q.** And the TGI (UACC-62 melanoma)?
**A.** 6.96 µM

**Q.** What about the TGI (UO-31 renal) of the same molecule?
**A.** 13.8 µM
